Measured values reported in US20160002315A1, “APOLIPOPROTEIN MIMETICS AND USES THEREOF” (UAB RESEARCH FOUNDATION, priority 2013, published 2016).

Tests used:
MEF 1 cells = MEF 1 cells with induced LDL receptors; cited from earlier work
VLDL = conditions: peptide interacting with VLDL; cited from earlier work
Apo E null mice [1] = test: Study One: atherosclerotic lesions (en face aorta, aortic sinus, macrophage coverage) in Apo E null mice; assay type: in vivo
Method: (§1) The mice were fed a Western diet for 6 weeks to elevate cholesterol. The animals were then switched to a chow diet for two weeks after which they were treated with peptide or saline for 4 weeks. Treatment was then withdrawn for 4 weeks while the animals remained on a chow diet. After the 4 week post treatment phase, the mice were euthanized and tissue dissection and sample collection was performed.
(§2) The mice were euthanized at week 30, which is four weeks post treatment with Apo E mimetic.

Apo E null mice [2] = test: Study One: plasma markers of oxidative stress (ROS, PON activity) in Apo E null mice; assay type: in vivo
Method: as §1
(§3) Blood was drawn after 4 weeks of treatment at week 26 and analyzed for cholesterol. […] However, Apo E mimetic treatment did improve plasma marker of oxidative stress, such as ROS and PON activity. […] Because ROS have been implicated in the pathogenesis of atherosclerosis, the decrease in ROS by treatment with an Apo E mimetic is beneficial.
The PON gene family has anti-atherosclerotic effects, such as preventing oxidation of LDLs. Thus, the increase in PON activity in hE18A treated mice is beneficial in the atherosclerosis animal model.
as §2

Apo E null mice [3] = test: Study One: plasma cholesterol and triglycerides in Apo E null mice; assay type: in vivo
Method: as §1, §3, §2

Apo E −/− mice [4] = test: Study Two: plasma and liver lipids in Apo E -/- mice; assay type: in vivo; conditions: four weeks after cessation of treatment
Method: (§4) The mice were fed a lard diet for seven weeks and then were switched to a chow diet for four weeks. The mice were treated two times a week for four weeks and then treatment was withdrawn for four weeks. Termination 1 represents the time point immediately following termination of the Apo E mimetic treatment. Termination 2 represents the time point immediately following the four weeks of treatment withdrawal. Lipids were analyzed in the plasma (cholesterol, triglycerides) and in the liver (cholesterol esters, unesterified cholesterol, triglycerides).

Apo E −/− mice [5] = test: Study Two: plaques in the aorta of Apo E -/- mice; assay type: in vivo; conditions: 5 mg/kg
Method: as §4

cells = conditions: peptide-associated VLDL, absence of apoE; cited from earlier work
[6] = 4 weeks post treatment (study termination)
[7] = four weeks after the end of treatment

LRRLRRRLLR-18A [Ac-hE(R)-18A-NH2]
enhancement of LDL internalization (MEF 1 cells): seven

LRKMRKRLMR-18A [Ac-mE-18A-NH2]
enhancement of LDL internalization (MEF 1 cells): three

Ac-D-W-L-K-A-F-Y-D-K-V-A-E-K-L-K-E-A-F-NH2 (Ac-DWLKAFYDKVAEKLKEAF-NH2) [Ac-18A-NH2, control peptide, reference compound]
displacement of apo E from VLDL (VLDL): displacement of apo E from VLDL

LRKLRKRLLRDWLKAFYDKVAEKLKEAF (ApoE mimetic) [hE18A]
atherosclerotic lesion area in the aortic sinus (Apo E null mice [1]; [6]): significantly decreased | macrophage coverage of the aortic sinus (Apo E null mice [1]; [6]): non-significant trend towards a decrease | atherosclerotic lesion area (en face aorta) (Apo E null mice [1]; 4 weeks post treatment, compared to saline or mR18L): significantly reduced | PON-1 activity (Apo E null mice [2]; 4 weeks post treatment, over saline and mR18L): still increased | reactive oxygen species (ROS) (Apo E null mice [2]; after 4 weeks of treatment, compared to saline): significant decrease | paraoxonase (PON) activity (Apo E null mice [2]; after 4 weeks of treatment, compared to saline and mR18L): significant increase | ROS levels (Apo E null mice [2]; [7]): not significantly different | plasma cholesterol levels (Apo E null mice [3]; end of 4 weeks of treatment, compared to mR18L and saline): better in reducing plasma cholesterol levels | cholesterol levels (Apo E null mice [3]; [7]): not significantly different

Ac-LRKLRKRLLRDWLKAFYDKVAEKLKEAF-NH2 [Ac-hE18A-NH2, end protected analog of hE-18A]
displacement of apo E from VLDL (VLDL): displacement of apo E from VLDL | cholesterol levels (Apo E −/− mice [4]): about 650 mg/dl | PON-1 levels in HDL fractions (Apo E null mice [2]; Apo E null mice, HDL fractions 29-32): dramatic increase | decrease of atherosclerotic lesions in the thoracic aorta (Apo E −/− mice [5]): about 50% | reduction of lesions in the aortic arch (Apo E −/− mice [5]; at the end of treatment): about 35% | enhancement of degradation of VLDL compared to VLDL alone (cells): three | enhancement of uptake of VLDL compared to VLDL alone (cells): six
